Laboratory results published in patent publication US6914045B2, “Glycopeptide antibiotics” (Wyeth Holdings Corporation, priority 2001, dated 2005).
≈ marks a conversion by molar mass, not a printed value.

Assays:
Experiment in all cases: in vitro antibacterial evaluation, MIC by broth dilution
Format in all cases: cell-based
Enterococcus sp. = conditions: broth dilution, 18 hours at 35° C.
Method in brief: (§1)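 MIC, the lowest antibiotic concentration preventing growth, was read across 64-0.06 μg/mL with 5×10^5 CFU/mL inoculum. Method followed NCCLS M7-A2 broth dilution using Mueller-Hinton II; Gram-positive strains covered recent methicillin-, penicillin- and/or vancomycin-resistant clinical isolates.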

Escherichia coli = conditions: 18 hours at 35° C., strain ATCC 25922
Method in brief: as §1

Staphylococcus sp. = conditions: broth dilution, 18 hours at 35° C.
Method in brief: as §1

Streptococcus sp. = conditions: broth dilution, 18 hours at 35° C.
Method in brief: as §1

## CC(c1ccccc1)C1NC(=O)CNC(=O)C(CO)NC(=O)C(C(O)C2CNC(=N)N2C2OC(CO)C(O)C(O)C2O)NC(=O)C(C(O)C2CNC(=N)N2)NC(=O)C(Cc2ccc(OC3OC(CO)C(OC4OC(COC(=O)OCc5ccccc5)C(O)C(O)C4O)C(O)C3O)cc2)NC1=O (stereo not drawn) [Example 101a]
Enterococcus sp.; Enterococcus avium (GC 4558)
  MIC Enterococcus avium (GC 4558): 16 µg/mL (≈ 11.2 µM)
Enterococcus sp.; Enterococcus faecalis (ATCC 29212)
  MIC Enterococcus faecalis (ATCC 29212): 16 µg/mL (≈ 11.2 µM)
Enterococcus sp.; Enterococcus faecalis (GC 2242)
  MIC Enterococcus faecalis (GC 2242): 8 µg/mL (≈ 5.6 µM)
Enterococcus sp.; Enterococcus faecalis (GC 4552)
  MIC Enterococcus faecalis (GC 4552): 16 µg/mL (≈ 11.2 µM)
Enterococcus sp.; Enterococcus faecalis (GC 4553)
  MIC Enterococcus faecalis (GC 4553): 16 µg/mL (≈ 11.2 µM)
Enterococcus sp.; Enterococcus faecalis (GC 4554)
  MIC Enterococcus faecalis (GC 4554): 16 µg/mL (≈ 11.2 µM)
Enterococcus sp.; Enterococcus faecium (GC 2243)
  MIC Enterococcus faecium (GC 2243): 16 µg/mL (≈ 11.2 µM)
Enterococcus sp.; Enterococcus faecium (GC 4556)
  MIC Enterococcus faecium (GC 4556): 16 µg/mL (≈ 11.2 µM)
Enterococcus sp.; Enterococcus faecium (GC 4557)
  MIC Enterococcus faecium (GC 4557): 2 µg/mL (≈ 1.4 µM)
Enterococcus sp.; strain ATCC 29212
  MIC Enterococcus faecalis (ATCC 29212): 16 µg/mL (≈ 11.2 µM)
Enterococcus sp.; strain GC 2242
  MIC Enterococcus faecalis (GC 2242): 8 µg/mL (≈ 5.6 µM)
Enterococcus sp.; strain GC 2243
  MIC Enterococcus faecium (GC 2243): 16 µg/mL (≈ 11.2 µM)
Enterococcus sp.; strain GC 4552
  MIC Enterococcus faecalis (GC 4552): 16 µg/mL (≈ 11.2 µM)
Enterococcus sp.; strain GC 4553
  MIC Enterococcus faecalis (GC 4553): 16 µg/mL (≈ 11.2 µM)
Enterococcus sp.; strain GC 4554
  MIC Enterococcus faecalis (GC 4554): 16 µg/mL (≈ 11.2 µM)
Enterococcus sp.; strain GC 4556
  MIC Enterococcus faecium (GC 4556): 16 µg/mL (≈ 11.2 µM)
Enterococcus sp.; strain GC 4557
  MIC Enterococcus faecium (GC 4557): 2 µg/mL (≈ 1.4 µM)
Enterococcus sp.; strain GC 4558
  MIC Enterococcus avium (GC 4558): 16 µg/mL (≈ 11.2 µM)
Escherichia coli
  MIC Escherichia coli (ATCC 25922): 64 µg/mL (≈ 44.8 µM)
Staphylococcus sp.
  MIC Coagulase Negative Staphylococcus (GC 4547): 1 µg/mL (≈ 0.7 µM)
  MIC Coagulase Negative Staphylococcus (GC 4548): 1 µg/mL (≈ 0.7 µM)
  MIC Coagulase Negative Staphylococcus (GC 4549): 1 µg/mL (≈ 0.7 µM)
  MIC Coagulase Negative Staphylococcus (GC 4551): 2 µg/mL (≈ 1.4 µM)
  MIC Coagulase Negative Staphylococcus (ID-3941): 1 µg/mL (≈ 0.7 µM)
  MIC Staphylococcus aureus (ATCC 29213): 2 µg/mL (≈ 1.4 µM)
  MIC Staphylococcus aureus (GC 1131): 4 µg/mL (≈ 2.8 µM)
  MIC Staphylococcus aureus (GC 4541): 2 µg/mL (≈ 1.4 µM)
  MIC Staphylococcus aureus (GC 4542): 4 µg/mL (≈ 2.8 µM)
  MIC Staphylococcus aureus (GC 4544): 4 µg/mL (≈ 2.8 µM)
  MIC Staphylococcus aureus (GC 4545): 4 µg/mL (≈ 2.8 µM)
  MIC Staphylococcus aureus-SMITH (GC 4543): 8 µg/mL (≈ 5.6 µM)
  MIC Staphylococcus haemolyticus (GC 4546): 1 µg/mL (≈ 0.7 µM)
Staphylococcus sp.; strain GC 4546
  MIC Staphylococcus haemolyticus (GC 4546): 1 µg/mL (≈ 0.7 µM)
Staphylococcus sp.; strain GC 4547
  MIC Coagulase Negative Staphylococcus (GC 4547): 1 µg/mL (≈ 0.7 µM)
Staphylococcus sp.; strain GC 4548
  MIC Coagulase Negative Staphylococcus (GC 4548): 1 µg/mL (≈ 0.7 µM)
Staphylococcus sp.; strain GC 4549
  MIC Coagulase Negative Staphylococcus (GC 4549): 1 µg/mL (≈ 0.7 µM)
Staphylococcus sp.; strain GC 4551
  MIC Coagulase Negative Staphylococcus (GC 4551): 2 µg/mL (≈ 1.4 µM)
Staphylococcus sp.; strain ID-3941
  MIC Coagulase Negative Staphylococcus (ID-3941): 1 µg/mL (≈ 0.7 µM)
Staphylococcus sp.; strain SMITH GC 4543
  MIC Staphylococcus aureus-SMITH (GC 4543): 8 µg/mL (≈ 5.6 µM)
Staphylococcus sp.; strain ATCC 29213
  MIC Staphylococcus aureus (ATCC 29213): 2 µg/mL (≈ 1.4 µM)
Staphylococcus sp.; strain GC 1131
  MIC Staphylococcus aureus (GC 1131): 4 µg/mL (≈ 2.8 µM)
Staphylococcus sp.; strain GC 4541
  MIC Staphylococcus aureus (GC 4541): 2 µg/mL (≈ 1.4 µM)
Staphylococcus sp.; strain GC 4542
  MIC Staphylococcus aureus (GC 4542): 4 µg/mL (≈ 2.8 µM)
Staphylococcus sp.; strain GC 4544
  MIC Staphylococcus aureus (GC 4544): 4 µg/mL (≈ 2.8 µM)
Staphylococcus sp.; strain GC 4545
  MIC Staphylococcus aureus (GC 4545): 4 µg/mL (≈ 2.8 µM)
Streptococcus sp.; Streptococcus agalactiae (GC 4564)
  MIC Streptococcus agalactiae (GC 4564): 1 µg/mL (≈ 0.7 µM)
Streptococcus sp.; Streptococcus pneumoniae (GC 4565)
  MIC Streptococcus pneumoniae (GC 4565): <0.5 µg/mL
Streptococcus sp.; Streptococcus pyogenes (ID-3187)
  MIC Streptococcus pyogenes (ID-3187): 1 µg/mL (≈ 0.7 µM)
Streptococcus sp.; strain GC 4564
  MIC Streptococcus agalactiae (GC 4564): 1 µg/mL (≈ 0.7 µM)
Streptococcus sp.; strain GC 4565
  MIC Streptococcus pneumoniae (GC 4565): <0.5 µg/mL
Streptococcus sp.; strain ID-3187
  MIC Streptococcus pyogenes (ID-3187): 1 µg/mL (≈ 0.7 µM)
